The assay relates to BDF1 mice, P388 leukemia ip, median survival T/C. Nature of the assay: NCI In Vivo Anticancer Drug Screen. Data for tumor model P388 Leukemia (intraperitoneal) in B6D2F1 (BDF1) mice. Conditions: endpoint: median survival time, higher = longer survival. The method, boiled down:
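Each value expresses how treatment altered survival: treated-mouse outcome over vehicle-mouse outcome, both groups bearing the transplanted tumour.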

The mark [1] stands for this setting: dose: 100.0 mg/kg/injection, schedule: Q04DX003 (ip), vehicle: Klucel (hydroxypropylcellulose) (HPC).
Where [2] appears, read: dose: 200.0 mg/kg/injection, schedule: Q04DX003 (ip), vehicle: Klucel (hydroxypropylcellulose) (HPC).
Setting [3] is: dose: 400.0 mg/kg/injection, schedule: Q04DX003 (ip), vehicle: Klucel (hydroxypropylcellulose) (HPC).
The mark [4] stands for this setting: dose: 50.0 mg/kg/injection, schedule: Q01DX009 (ip), vehicle: saline with Tween-80.
Where [5] appears, read: dose: 100.0 mg/kg/injection, schedule: Q01DX009 (ip), vehicle: saline with Tween-80.
Where [6] appears, read: dose: 200.0 mg/kg/injection, schedule: Q01DX009 (ip), vehicle: saline with Tween-80.
[7] abbreviates: dose: 100.0 mg/kg/injection, schedule: Q04DX003 (ip), vehicle: saline with Tween-80.
Where [8] appears, read: dose: 200.0 mg/kg/injection, schedule: Q04DX003 (ip), vehicle: saline with Tween-80.
Where [9] appears, read: dose: 400.0 mg/kg/injection, schedule: Q04DX003 (ip), vehicle: saline with Tween-80.

Values joined by “and” are separate entries in the source; they are usually repeats but may differ in a detail not shown here. Identical values can stand only once. Inconclusive results and toxic doses are left out. Residues, ends and D or L forms follow the SMILES beside them. *: point of attachment. Cbz = O=C(OCc1ccccc1)*; Bn = c1ccc(C*)cc1

In the case of `CC(C)CC(NC(=O)C1CCCN1C(=O)C(CSCc1ccccc1)NC(=O)OCc1ccccc1)C(=O)NCC(N)=O` (configuration not stated) (Cbz-C(Bn)PLG-NH2; configuration not given here), the T/C runs as follows: under setting [1], 99 % of control; under setting [2], 95 % of control; under setting [3], 87 % of control.
Regarding `CCN1CC2(COC)C(O)CC(OC)C34C5CC6(O)C(OC)C=C(C5C6OC(=O)c5ccc(OC)c(OC)c5)C(C(OC)C23)C14` (configuration not stated), the T/C is 120 % of control (dose: 0.19 mg/kg/injection, schedule: Q01DX009 (ip), vehicle: saline with Tween-80); 94 % of control (dose: 0.38 mg/kg/injection, schedule: Q01DX009 (ip), vehicle: saline with Tween-80); 90 % of control (dose: 0.75 mg/kg/injection, schedule: Q01DX009 (ip), vehicle: saline with Tween-80).
For `CC1(c2ccc(N(CCCl)CCCl)cc2)NC(=O)NC1=O` (configuration not stated), the T/C was 121 % of control (dose: 6.25 mg/kg/injection, schedule: Q01DX009 (ip), vehicle: Klucel (hydroxypropylcellulose) (HPC)); 122 % of control (dose: 12.5 mg/kg/injection, schedule: Q01DX009 (ip), vehicle: Klucel (hydroxypropylcellulose) (HPC)); 191 % of control (dose: 25.0 mg/kg/injection, schedule: Q01DX009 (ip), vehicle: Klucel (hydroxypropylcellulose) (HPC)); 260 % of control (dose: 100.0 mg/kg/injection, schedule: Q01DX009 (ip), vehicle: Klucel (hydroxypropylcellulose) (HPC)).
Regarding `Cc1ccc[nH]c1=O`, the T/C was 91 % of control (dose: 50.0 mg/kg/injection, schedule: Q04DX003 (ip), vehicle: saline sonified); 91 % of control (dose: 100.0 mg/kg/injection, schedule: Q04DX003 (ip), vehicle: saline sonified); 100 % of control (dose: 200.0 mg/kg/injection, schedule: Q04DX003 (ip), vehicle: saline sonified).
`CCCCCCCCCCCCCCSC1CC(=O)OC1=O` (configuration not stated): the T/C runs as follows: under setting [4], 98 % of control; under setting [5], 91 % of control; under setting [6], 96 % of control.
For the compound `CC(OC1C(N)C(O)OC(CO)C1O)C(=O)O` (configuration not stated), the T/C reads like this: (dose: 50.0 mg/kg/injection, schedule: Q01DX005 (ip), vehicle: saline) 103 % of control; (dose: 100.0 mg/kg/injection, schedule: Q01DX005 (ip), vehicle: saline) 109 % of control; (dose: 200.0 mg/kg/injection, schedule: Q01DX005 (ip), vehicle: saline) 107 % of control.
Regarding `C/C(=N\N=C(N)N)c1ccc(NC(=O)Nc2ccc(/C(C)=N/N=C(N)N)cc2)cc1`, the T/C (dose: 1.5 mg/kg/injection, schedule: Q04DX003 (ip), vehicle: saline) is 115 % of control; the T/C (dose: 5.4 mg/kg/injection, schedule: Q04DX003 (ip), vehicle: saline) was 150 % of control; the T/C (dose: 44.0 mg/kg/injection, schedule: Q04DX003 (ip), vehicle: saline) is 163 % of control; the T/C (dose: 66.0 mg/kg/injection, schedule: Q04DX003 (ip), vehicle: saline) is 118 % of control; the T/C (dose: 100.0 mg/kg/injection, schedule: Q04DX003 (ip), vehicle: saline) is 154 % of control; the T/C (dose: 200.0 mg/kg/injection, schedule: Q04DX003 (ip), vehicle: saline) is 179 % of control. Also, the T/C (dose: 264.0 mg/kg/injection, schedule: Q04DX003 (ip), vehicle: saline) was 180 % of control and 222 % of control; the T/C (dose: 400.0 mg/kg/injection, schedule: Q04DX003 (ip), vehicle: saline) was 236 % of control and 241 % of control and 190 % of control.
`Cc1c2ccccc2cc2cccc[n+]12`: the T/C is, setting by setting: (dose: 0.63 mg/kg/injection, schedule: Q01DX010 (ip), vehicle: saline) 100 % of control; (dose: 1.25 mg/kg/injection, schedule: Q01DX010 (ip), vehicle: saline) 100 % of control; (dose: 2.5 mg/kg/injection, schedule: Q01DX010 (ip), vehicle: saline) 105 % of control and 120 % of control; (dose: 10.0 mg/kg/injection, schedule: Q01DX010 (ip), vehicle: saline) 150 % of control; (dose: 40.0 mg/kg/injection, schedule: Q04DX003 (ip), vehicle: saline) 150 % of control; (dose: 80.0 mg/kg/injection, schedule: Q04DX003 (ip), vehicle: saline) 100 % of control.
Regarding `O=[N+]([O-])c1ccc(N2CCN(c3ccc([N+](=O)[O-])c4c3no[n+]4[O-])CC2)c2c1no[n+]2[O-]`, the T/C (dose: 15.0 mg/kg/injection, schedule: Q04DX003 (ip), vehicle: saline with Tween-80) was 111 % of control; the T/C (dose: 30.0 mg/kg/injection, schedule: Q04DX003 (ip), vehicle: saline with Tween-80) was 106 % of control; the T/C (dose: 60.0 mg/kg/injection, schedule: Q04DX003 (ip), vehicle: saline with Tween-80) is 101 % of control.
In the case of `Cn1cc(NC(=O)c2cc(NC(=O)c3cc(NC=O)cn3C)cn2C)cc1C(=O)NCCC(=N)N`, the T/C runs as follows: (dose: 110.0 mg/kg/injection, schedule: Q04DX003 (ip), vehicle: Klucel (hydroxypropylcellulose) (HPC)) 113 % of control; (dose: 170.0 mg/kg/injection, schedule: Q04DX003 (ip), vehicle: Klucel (hydroxypropylcellulose) (HPC)) 109 % of control; (dose: 255.0 mg/kg/injection, schedule: Q04DX003 (ip), vehicle: Klucel (hydroxypropylcellulose) (HPC)) 104 % of control.
With `CCCCCCCCCCCCCCCCS(=O)(=O)CCO`, the T/C under setting [7] is 104 % of control and the T/C under setting [8] is 91 % of control.
For the compound `O=C1C(NCC(O)CO)=C(N2CC2)C(=O)C(NCC(O)CO)=C1N1CC1` (configuration not stated), the T/C is, setting by setting: (dose: 0.5 mg/kg/injection, schedule: Q01DX009 (ip), vehicle: saline) 98 % of control; (dose: 1.5 mg/kg/injection, schedule: Q01DX009 (ip), vehicle: saline) 233 % of control; (dose: 2.0 mg/kg/injection, schedule: Q01DX009 (ip), vehicle: saline) 116 % of control and 213 % of control; (dose: 4.0 mg/kg/injection, schedule: Q01DX009 (ip), vehicle: saline) 241 % of control and 243 % of control; (dose: 6.0 mg/kg/injection, schedule: Q01DX009 (ip), vehicle: saline) 107 % of control.
With `O=C(O)c1ccccc1C(=O)Nc1cc(C(F)(F)F)ccc1Cl`, the T/C by setting is: under setting [7], 90 % of control; under setting [8], 104 % of control; under setting [9], 118 % of control.
For the compound `COCCn1c2c(n/c(=C(\O)OC)c1=N)CCCC=2`, the T/C runs as follows: under setting [4], 106 % of control; under setting [5], 116 % of control; under setting [6], 97 % of control.
For the compound `NC(CO)C(=O)O.[Cl-].[Cl-].[Cl-].[Cl-].[Pt+2]` (configuration not stated), the T/C (dose: 50.0 mg/kg/injection, schedule: Q01DX009 (ip), vehicle: saline) was 116 % of control.
In the case of `COc1cc(O)c2c(c1)OC(c1ccc(OC)c(O)c1)CC2=O` (configuration not stated), the T/C was 117 % of control (dose: 12.5 mg/kg/injection, schedule: Q01DX009 (ip), vehicle: alcohol); 109 % of control (dose: 50.0 mg/kg/injection, schedule: Q01DX009 (ip), vehicle: alcohol); 92 % of control (dose: 100.0 mg/kg/injection, schedule: Q01DX009 (ip), vehicle: alcohol).
As to `O=c1c2ccccc2c2c3c1cccc3c1cccc3c(=O)c4ccccc4c2c31`, the T/C is, setting by setting: under setting [7], 86 % of control; under setting [8], 90 % of control; under setting [9], 90 % of control.
On to `C[C@]12CCC(=O)C(O)=C1CC[C@@H]1[C@@H]2CC[C@@]2(C)[C@H]1CC[C@]2(C)O`, for which the T/C runs as follows: (dose: 66.0 mg/kg/injection, schedule: Q01DX009 (ip), vehicle: saline with Tween-80) 104 % of control; under setting [5], 95 % of control; (dose: 150.0 mg/kg/injection, schedule: Q01DX009 (ip), vehicle: saline with Tween-80) 95 % of control; (dose: 200.0 mg/kg/injection, schedule: Q01DX009 (ip), vehicle: saline sonified) 90 % of control; (dose: 400.0 mg/kg/injection, schedule: Q01DX009 (ip), vehicle: saline sonified) 90 % of control.
As for `CCCCCCCC(O)CCCC` (configuration not stated), the T/C was 87 % of control under setting [1], 91 % of control under setting [2] and 91 % of control under setting [3].
Take `O=C(OCCO)c1ccccc1O`: the T/C was 107 % of control (dose: 100.0 mg/kg/injection, schedule: Q01DX009 (ip), vehicle: saline); 115 % of control (dose: 200.0 mg/kg/injection, schedule: Q01DX009 (ip), vehicle: saline); 100 % of control (dose: 400.0 mg/kg/injection, schedule: Q01DX009 (ip), vehicle: saline).
Turning to `O=[N+]([O-])c1ccc2nccc(Cl)c2c1`, the T/C (dose: 25.0 mg/kg/injection, schedule: Q04DX003 (ip), vehicle: Klucel (hydroxypropylcellulose) (HPC)) was 100 % of control and the T/C (dose: 50.0 mg/kg/injection, schedule: Q04DX003 (ip), vehicle: Klucel (hydroxypropylcellulose) (HPC)) is 95 % of control.

Values taken from PubChem BioAssay AID328 (DTP/NCI, 2004).
